The kinase profiling compilation of Christmann-Franck et al. (2016)

Legend:
AKT1 (human) = AKT1 (human) (UniProt P31749); conditions: compound 1.0 µM; ATP 100 µM
[1] = molecular target: CAMK2A or CAMK2B or CAMK2D or CAMK2G (human) (UniProt Q13555+Q13557+Q9UQM7+Q13554); conditions: compound 1.0 µM; ATP 100 µM
CHEK1 (human) = CHEK1 (human) (UniProt O14757); conditions: ATP 100 µM
[2] = molecular target: CSNK2A1 or CSNK2A2 (human) (UniProt P19784+P68400); conditions: ATP 100 µM
GSK3B (human) = GSK3B (human) (UniProt P49841); conditions: ATP 100 µM
LCK (human) = LCK (human) (UniProt P06239); conditions: ATP 100 µM
MAP2K1 (rabbit) = conditions: compound 1.0 µM; accession and sequence are those of the human protein
MAPK12 (human) = MAPK12 (human) (UniProt P53778); conditions: ATP 100 µM
MAPK13 (human) = MAPK13 (human) (UniProt O15264); conditions: ATP 100 µM
MAPK14 (human) = MAPK14 (human) (UniProt Q16539); conditions: compound 1.0 µM; ATP 100 µM
MAPK8 (human) = MAPK8 (human) (UniProt P45983); conditions: ATP 100 µM
MAPKAPK2 (human) = MAPKAPK2 (human) (UniProt P49137); conditions: ATP 100 µM
MAPKAPK5 (human) = MAPKAPK5 (human) (UniProt Q8IW41); conditions: compound 1.0 µM; ATP 100 µM
PDPK1 (human) = PDPK1 (human) (UniProt O15530); conditions: ATP 100 µM
PRKCA (human) = PRKCA (human) (UniProt P17252); conditions: ATP 100 µM
ROCK2 (rat) = conditions: accession and sequence are those of the human protein
RPS6KA5 KD1 KD2 (human) = RPS6KA5 KD1 KD2 (human) (UniProt O75582); conditions: ATP 100 µM
[3] = test system: RPS6KB1 (human), P23443 [T412E]; conditions: ATP 100 µM
PHKG1 or PHKG2 (rabbit) [4] = test: radiometric filter-binding kinase assay; conditions: compound 1.0 µM; ATP 100 µM; accession and sequence are those of the human protein
PRKAA1 or PRKAA2 (rat) [5] = test: radiometric filter-binding kinase assay; conditions: compound 1.0 µM; ATP 100 µM; accession and sequence are those of the human protein
PRKACA or PRKACB (cow) [6] = test: radiometric filter-binding kinase assay; conditions: compound 1.0 µM; accession and sequence are those of the human protein
RPS6KA3 KD1 KD2 (rabbit) [7] = test: radiometric filter-binding kinase assay; conditions: compound 1.0 µM; ATP 100 µM; accession and sequence are those of the human protein
MAP2K3 (human) = MAP2K3 (human) (UniProt P46734); conditions: compound 10.0 µM; ATP 100 µM
MAP2K4 (human) = MAP2K4 (human) (UniProt P45985); conditions: compound 10.0 µM; ATP 100 µM
MAP2K6 (human) = MAP2K6 (human) (UniProt P52564); conditions: compound 10.0 µM; ATP 100 µM
MAP2K7 (human) = MAP2K7 (human) (UniProt O14733); conditions: compound 10.0 µM; ATP 100 µM
MAPK1 (mouse) = conditions: compound 10.0 µM; accession and sequence are those of the human protein
MAPK11 (human) = MAPK11 (human) (UniProt Q15759); conditions: ATP 100 µM
PHKG1 or PHKG2 (rabbit) [8] = conditions: compound 10.0 µM; accession and sequence are those of the human protein
PRKAA1 or PRKAA2 (rat) [9] = conditions: compound 10.0 µM; accession and sequence are those of the human protein
PRKACA or PRKACB (cow) [10] = conditions: compound 10.0 µM; accession and sequence are those of the human protein
RPS6KA3 KD1 KD2 (rabbit) [11] = conditions: compound 10.0 µM; accession and sequence are those of the human protein
[12] = test system: SGK1 (human), O00141 [S422D]; conditions: ATP 100 µM
MYLK (chicken) [13] = conditions: accession and sequence are those of the human protein
PIK3CG (cow) = conditions: compound 1.0 µM; accession and sequence are those of the human protein
MYLK (chicken) [14] = test: radiometric filter-binding kinase assay; conditions: compound 1.0 µM; accession and sequence are those of the human protein
MYLK2 (rabbit) = test: radiometric filter-binding kinase assay; conditions: compound 1.0 µM; ATP 100 µM; accession and sequence are those of the human protein

Chain of LCK (human) (P06239 whole entry, looked up): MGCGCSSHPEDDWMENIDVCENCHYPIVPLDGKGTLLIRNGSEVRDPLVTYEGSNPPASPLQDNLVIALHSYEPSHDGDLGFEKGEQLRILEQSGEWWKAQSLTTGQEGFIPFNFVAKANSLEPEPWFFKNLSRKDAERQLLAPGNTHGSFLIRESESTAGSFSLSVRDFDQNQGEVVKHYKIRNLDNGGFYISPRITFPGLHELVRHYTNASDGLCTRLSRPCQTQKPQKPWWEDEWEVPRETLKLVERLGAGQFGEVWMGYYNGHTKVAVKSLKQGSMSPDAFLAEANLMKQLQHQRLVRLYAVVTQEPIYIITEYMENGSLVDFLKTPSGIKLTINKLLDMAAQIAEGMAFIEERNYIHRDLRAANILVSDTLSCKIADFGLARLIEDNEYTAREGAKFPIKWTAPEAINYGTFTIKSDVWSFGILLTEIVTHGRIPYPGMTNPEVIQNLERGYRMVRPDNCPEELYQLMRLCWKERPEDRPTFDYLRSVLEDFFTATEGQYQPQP
Chain of RPS6KB1 (human), P23443 [T412E] (P23443 whole entry T412E, looked up): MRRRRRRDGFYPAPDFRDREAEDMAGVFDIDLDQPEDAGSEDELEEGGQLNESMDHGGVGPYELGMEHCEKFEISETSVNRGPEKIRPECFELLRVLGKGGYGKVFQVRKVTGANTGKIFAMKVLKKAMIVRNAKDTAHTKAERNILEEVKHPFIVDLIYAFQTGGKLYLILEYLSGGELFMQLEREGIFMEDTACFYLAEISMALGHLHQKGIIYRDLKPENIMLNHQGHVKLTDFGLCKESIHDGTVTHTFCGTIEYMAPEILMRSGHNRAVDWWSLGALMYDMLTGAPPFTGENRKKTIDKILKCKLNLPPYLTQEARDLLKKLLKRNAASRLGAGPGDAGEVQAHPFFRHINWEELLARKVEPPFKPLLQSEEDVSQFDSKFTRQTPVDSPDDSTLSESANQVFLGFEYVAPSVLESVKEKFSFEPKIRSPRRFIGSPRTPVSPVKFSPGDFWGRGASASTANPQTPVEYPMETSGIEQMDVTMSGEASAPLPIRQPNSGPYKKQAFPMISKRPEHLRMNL
Chain of CHEK1 (human) (O14757 whole entry, looked up): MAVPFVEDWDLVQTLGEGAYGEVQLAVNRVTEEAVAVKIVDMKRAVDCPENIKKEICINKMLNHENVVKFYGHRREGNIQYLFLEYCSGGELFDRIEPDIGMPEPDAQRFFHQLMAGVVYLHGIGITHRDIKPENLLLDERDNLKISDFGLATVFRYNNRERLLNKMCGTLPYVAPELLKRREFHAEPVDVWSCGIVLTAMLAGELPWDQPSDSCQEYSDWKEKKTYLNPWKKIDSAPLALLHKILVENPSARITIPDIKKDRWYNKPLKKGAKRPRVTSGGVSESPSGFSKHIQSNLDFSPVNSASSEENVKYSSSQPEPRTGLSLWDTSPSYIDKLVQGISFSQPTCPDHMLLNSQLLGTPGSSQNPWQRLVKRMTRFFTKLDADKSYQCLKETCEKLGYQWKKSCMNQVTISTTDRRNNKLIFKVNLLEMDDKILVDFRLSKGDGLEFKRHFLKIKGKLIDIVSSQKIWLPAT
Chain of MAPKAPK2 (human) (P49137 whole entry, looked up): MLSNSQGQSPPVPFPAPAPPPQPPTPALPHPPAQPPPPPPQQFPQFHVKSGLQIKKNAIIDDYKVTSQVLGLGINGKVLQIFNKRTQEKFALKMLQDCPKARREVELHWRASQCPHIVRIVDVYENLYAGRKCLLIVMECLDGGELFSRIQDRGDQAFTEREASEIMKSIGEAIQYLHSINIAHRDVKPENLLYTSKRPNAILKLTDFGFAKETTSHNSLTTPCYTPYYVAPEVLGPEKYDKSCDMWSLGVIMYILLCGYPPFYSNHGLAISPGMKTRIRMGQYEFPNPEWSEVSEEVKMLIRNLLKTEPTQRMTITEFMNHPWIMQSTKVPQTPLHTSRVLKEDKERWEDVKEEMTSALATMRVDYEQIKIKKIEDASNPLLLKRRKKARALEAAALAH
Chain of SGK1 (human), O00141 [S422D] (O00141 whole entry S422D, looked up): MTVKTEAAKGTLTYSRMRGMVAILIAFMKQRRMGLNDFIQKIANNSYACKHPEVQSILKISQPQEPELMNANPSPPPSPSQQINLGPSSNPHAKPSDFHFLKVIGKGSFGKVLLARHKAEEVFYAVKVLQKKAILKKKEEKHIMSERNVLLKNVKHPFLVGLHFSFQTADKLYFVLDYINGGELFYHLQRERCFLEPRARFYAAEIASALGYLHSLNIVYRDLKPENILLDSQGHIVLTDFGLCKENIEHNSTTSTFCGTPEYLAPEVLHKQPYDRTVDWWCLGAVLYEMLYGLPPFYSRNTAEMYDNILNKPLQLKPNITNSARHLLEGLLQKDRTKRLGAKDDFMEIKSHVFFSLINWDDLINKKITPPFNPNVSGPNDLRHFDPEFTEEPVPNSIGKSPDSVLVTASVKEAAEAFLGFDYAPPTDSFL
Chain of GSK3B (human) (P49841 whole entry, looked up): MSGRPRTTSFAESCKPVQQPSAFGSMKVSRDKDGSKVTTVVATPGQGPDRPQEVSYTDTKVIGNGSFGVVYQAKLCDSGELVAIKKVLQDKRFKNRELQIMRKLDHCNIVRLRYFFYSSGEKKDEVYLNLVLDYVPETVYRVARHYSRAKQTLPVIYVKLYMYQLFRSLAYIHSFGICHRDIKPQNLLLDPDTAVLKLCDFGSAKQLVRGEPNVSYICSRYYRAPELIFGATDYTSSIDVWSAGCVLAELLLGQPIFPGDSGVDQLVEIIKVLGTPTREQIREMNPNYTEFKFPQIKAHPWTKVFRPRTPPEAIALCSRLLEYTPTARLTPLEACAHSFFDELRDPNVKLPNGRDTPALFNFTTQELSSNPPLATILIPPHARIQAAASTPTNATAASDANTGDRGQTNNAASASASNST
Chain of MAPK8 (human) (P45983 whole entry, looked up): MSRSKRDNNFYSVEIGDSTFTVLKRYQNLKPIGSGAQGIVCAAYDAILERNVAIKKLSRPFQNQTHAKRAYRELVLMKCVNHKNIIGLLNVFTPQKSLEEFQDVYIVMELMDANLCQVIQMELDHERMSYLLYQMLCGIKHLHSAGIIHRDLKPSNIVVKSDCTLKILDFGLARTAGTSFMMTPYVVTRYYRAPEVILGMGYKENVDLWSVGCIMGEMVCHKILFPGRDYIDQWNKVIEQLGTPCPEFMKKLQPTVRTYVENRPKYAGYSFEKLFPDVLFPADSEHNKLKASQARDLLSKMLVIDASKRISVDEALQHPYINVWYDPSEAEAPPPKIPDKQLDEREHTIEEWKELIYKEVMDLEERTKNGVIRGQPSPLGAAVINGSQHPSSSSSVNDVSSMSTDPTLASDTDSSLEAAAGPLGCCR
Chain of AKT1 (human) (P31749 whole entry, looked up): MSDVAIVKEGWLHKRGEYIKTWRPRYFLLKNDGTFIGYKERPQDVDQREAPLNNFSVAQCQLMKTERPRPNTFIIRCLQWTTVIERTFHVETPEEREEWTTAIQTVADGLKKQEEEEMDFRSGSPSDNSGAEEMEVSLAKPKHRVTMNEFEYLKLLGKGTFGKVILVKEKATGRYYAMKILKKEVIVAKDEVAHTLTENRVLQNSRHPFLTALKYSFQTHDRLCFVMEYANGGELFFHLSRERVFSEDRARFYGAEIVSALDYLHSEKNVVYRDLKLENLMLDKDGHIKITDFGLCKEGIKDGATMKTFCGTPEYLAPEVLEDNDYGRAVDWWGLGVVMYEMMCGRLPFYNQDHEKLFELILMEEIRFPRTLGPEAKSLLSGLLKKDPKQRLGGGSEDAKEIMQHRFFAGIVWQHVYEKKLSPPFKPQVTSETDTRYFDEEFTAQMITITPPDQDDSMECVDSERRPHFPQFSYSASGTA
Chain of PDPK1 (human) (O15530 whole entry, looked up): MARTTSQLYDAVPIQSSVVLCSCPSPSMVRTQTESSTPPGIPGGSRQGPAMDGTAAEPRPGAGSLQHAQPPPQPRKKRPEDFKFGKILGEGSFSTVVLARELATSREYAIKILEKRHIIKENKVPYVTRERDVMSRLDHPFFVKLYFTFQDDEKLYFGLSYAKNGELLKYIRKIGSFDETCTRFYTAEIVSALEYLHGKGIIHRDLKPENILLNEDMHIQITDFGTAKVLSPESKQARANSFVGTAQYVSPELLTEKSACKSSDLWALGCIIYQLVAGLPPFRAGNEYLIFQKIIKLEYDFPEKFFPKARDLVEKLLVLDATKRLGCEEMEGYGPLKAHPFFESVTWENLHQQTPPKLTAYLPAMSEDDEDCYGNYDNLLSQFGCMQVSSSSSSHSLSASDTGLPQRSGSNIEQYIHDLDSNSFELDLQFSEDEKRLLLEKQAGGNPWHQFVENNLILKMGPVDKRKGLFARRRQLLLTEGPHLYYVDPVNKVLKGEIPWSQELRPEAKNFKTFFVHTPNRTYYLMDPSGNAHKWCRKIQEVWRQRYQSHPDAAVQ

With `CN[C@@H]1C[C@@H]2O[C@@](C)([C@@H]1OC)n1c3ccccc3c3c4c(c5c6ccccc6n2c5c31)C(=O)N[C@@H]4O` the residual activity (AKT1 (human)) was 31%, the residual activity [1] was 69% and the residual activity (CHEK1 (human); compound 1.0 µM) was 3%. For the same molecule, the residual activity ([2]; compound 1.0 µM) was 77%, the residual activity (GSK3B (human); compound 1.0 µM) was 83% and the residual activity (LCK (human); compound 1.0 µM) was 7%. It also gave a residual activity (MAP2K1 (rabbit)) of 90%, a residual activity (MAPK12 (human); compound 1.0 µM) of 76% and a residual activity (MAPK13 (human); compound 1.0 µM) of 91%. For the same molecule, the residual activity (MAPK14 (human)) was 92%, the residual activity (MAPK8 (human); compound 1.0 µM) was 98% and the residual activity (MAPKAPK2 (human); compound 1.0 µM) was 90%. The residual activity (MAPKAPK5 (human)) was 77%, the residual activity (PDPK1 (human); compound 1.0 µM) was 0% and the residual activity (PRKCA (human); compound 1.0 µM) was 1%. For the same molecule, the residual activity (ROCK2 (rat); compound 1.0 µM) was 22%, the residual activity (RPS6KA5 KD1 KD2 (human); compound 1.0 µM) was 19% and the residual activity ([3]; compound 1.0 µM) was 28%. For the same molecule, the residual activity (PHKG1 or PHKG2 (rabbit) [4]) was 0%, the residual activity (PRKAA1 or PRKAA2 (rat) [5]) was 1% and the residual activity (PRKACA or PRKACB (cow) [6]) was 39%. For the same molecule, the residual activity (RPS6KA3 KD1 KD2 (rabbit) [7]) was 5%.

`N#CC(=C(\N)Sc1ccccc1N)/C(C#N)=C(/N)Sc1ccccc1N` was tested, and the residual activity (CHEK1 (human); compound 10.0 µM) was 95%, the residual activity ([2]; compound 10.0 µM) was 107% and the residual activity (GSK3B (human); compound 10.0 µM) was 105%. It also gave a residual activity (LCK (human); compound 10.0 µM) of 87%, a residual activity (MAP2K3 (human)) of 114% and a residual activity (MAP2K4 (human)) of 81%. The residual activity (MAP2K6 (human)) was 79%, the residual activity (MAP2K7 (human)) was 89% and the residual activity (MAPK1 (mouse)) was 92%. The residual activity (MAPK11 (human); compound 10.0 µM) was 90%, the residual activity (MAPK12 (human); compound 10.0 µM) was 100% and the residual activity (MAPK13 (human); compound 10.0 µM) was 111%. For the same molecule, the residual activity (MAPK8 (human); compound 10.0 µM) was 96%, the residual activity (MAPKAPK2 (human); compound 10.0 µM) was 102% and the residual activity (PDPK1 (human); compound 10.0 µM) was 99%. The residual activity (PHKG1 or PHKG2 (rabbit) [8]) was 101%, the residual activity (PRKAA1 or PRKAA2 (rat) [9]) was 85% and the residual activity (PRKACA or PRKACB (cow) [10]) was 95%. For the same molecule, the residual activity (PRKCA (human); compound 10.0 µM) was 92%, the residual activity (ROCK2 (rat); compound 10.0 µM) was 94% and the residual activity (RPS6KA3 KD1 KD2 (rabbit) [11]) was 88%. It also gave a residual activity (RPS6KA5 KD1 KD2 (human); compound 10.0 µM) of 104%, a residual activity ([3]; compound 10.0 µM) of 92% and a residual activity ([12]; compound 10.0 µM) of 91%.

Work on `CO[C@H]1CC2CC[C@@H](C)[C@@](O)(O2)C(=O)C(=O)N2CCCC[C@H]2C(=O)OC([C@H](C)C[C@@H]2CC[C@@H](O)[C@H](OC)C2)CC(=O)[C@H](C)/C=C(\C)[C@@H](O)[C@@H](OC)C(=O)[C@H](C)C[C@H](C)/C=C/C=C/C=C/1C` (some centres not stated) yielded a residual activity (AKT1 (human)) of 91%, a residual activity (CHEK1 (human); compound 1.0 µM) of 102% and a residual activity ([2]; compound 1.0 µM) of 104%. The residual activity (GSK3B (human); compound 1.0 µM) was 89%, the residual activity (LCK (human); compound 1.0 µM) was 102% and the residual activity (MAP2K1 (rabbit)) was 99%. The residual activity (MAPK12 (human); compound 1.0 µM) was 100%, the residual activity (MAPK8 (human); compound 1.0 µM) was 98% and the residual activity (MAPKAPK2 (human); compound 1.0 µM) was 125%. The residual activity (PDPK1 (human); compound 1.0 µM) was 110%, the residual activity (PRKCA (human); compound 1.0 µM) was 99% and the residual activity (ROCK2 (rat); compound 1.0 µM) was 92%. The residual activity (RPS6KA5 KD1 KD2 (human); compound 1.0 µM) was 104%, the residual activity ([3]; compound 1.0 µM) was 109% and the residual activity ([12]; compound 1.0 µM) was 108%. For the same molecule, the residual activity (PHKG1 or PHKG2 (rabbit) [4]) was 103%, the residual activity (PRKAA1 or PRKAA2 (rat) [5]) was 106% and the residual activity (PRKACA or PRKACB (cow) [6]) was 104%.

`CN1C(=O)C(c2c[nH]c3ccccc23)=C(c2c[nH]c3ccccc23)C1=O` was tested, and the residual activity (PHKG1 or PHKG2 (rabbit) [4]) was 100%.

Work on `CCCCCCOC(=O)[C@@]1(O)C[C@H]2O[C@]1(C)n1c3ccccc3c3c4c(c5c6ccccc6n2c5c31)C(=O)NC4` yielded a residual activity (PHKG1 or PHKG2 (rabbit) [8]) of 0%.

Work on `COC[C@H]1OC(=O)c2coc3c2[C@@]1(C)C1=C(C3=O)[C@@H]2CCC(=O)[C@@]2(C)C[C@H]1OC(C)=O` yielded a residual activity (AKT1 (human)) of 96%, a residual activity (CHEK1 (human); compound 1.0 µM) of 99% and a residual activity ([2]; compound 1.0 µM) of 98%. It also gave a residual activity (LCK (human); compound 1.0 µM) of 95%, a residual activity (MAP2K1 (rabbit)) of 96% and a residual activity (MAPK11 (human); compound 1.0 µM) of 74%. It also gave a residual activity (MAPK12 (human); compound 1.0 µM) of 75%, a residual activity (MAPK14 (human)) of 86% and a residual activity (MAPK8 (human); compound 1.0 µM) of 97%. For the same molecule, the residual activity (MAPKAPK2 (human); compound 1.0 µM) was 102%, the residual activity (MAPKAPK5 (human)) was 85% and the IC50 (MYLK (chicken) [13]) was 260 nM. For the same molecule, the residual activity (PDPK1 (human); compound 1.0 µM) was 88%, the residual activity (PIK3CG (cow)) was 0% and the residual activity (PRKCA (human); compound 1.0 µM) was 100%. It also gave a residual activity (ROCK2 (rat); compound 1.0 µM) of 91%, a residual activity (RPS6KA5 KD1 KD2 (human); compound 1.0 µM) of 99% and a residual activity ([3]; compound 1.0 µM) of 106%. The residual activity ([12]; compound 1.0 µM) was 101%, the residual activity (MYLK (chicken) [14]) was 4% and the residual activity (MYLK2 (rabbit)) was 104%. It also gave a residual activity (PHKG1 or PHKG2 (rabbit) [4]) of 100%, a residual activity (PRKAA1 or PRKAA2 (rat) [5]) of 106% and a residual activity (PRKACA or PRKACB (cow) [6]) of 97%. The residual activity (RPS6KA3 KD1 KD2 (rabbit) [7]) was 92%.

With `O=C1NCc2c1c1c3ccccc3[nH]c1c1[nH]c3ccccc3c21` the residual activity (PHKG1 or PHKG2 (rabbit) [8]) was 0%.
